We go through 5 molecules from patent publication US8552029B2, “Quinoline derivatives and uses of the same” (National Taipei University of Technology, priority 2011, dated 2013).

As for `Nc1ccc(-n2cc(C(=O)O)c(=O)c3cc(F)c(N/N=C/c4ccccc4)cc32)cc1` [Compound 7, 1-(4-aminophenyl)-7-(2-benzylidenehydrazinyl)-6-fluoro-4-oxo-1,4-dihydroquinoline-3-carboxylic acid], the melting point (in general, the temperature, or range, at which the solid turns liquid) fell in the range of 314 to 316 °C. The figure for `Nc1ccc(-n2cc(C(=O)O)c(=O)c3cc(F)c(N/N=C/c4ccc(F)cc4)cc32)cc1` [Compound 8, 1-(4-aminophenyl)-6-fluoro-7-[2-(4-fluorobenzylidene)hydrazinyl]-4-oxo-1,4-dihydroquinoline-3-carboxylic acid] is 308 to 310 °C; for `COc1ccc(/C=N/Nc2cc3c(cc2F)c(=O)c(C(=O)O)cn3-c2ccc(N)cc2)cc1` [Compound 9, 1-(4-aminophenyl)-6-fluoro-7-(2-(4-methoxybenzylidene)hydrazinyl)-4-oxo-1,4-dihydroquinoline-3-carboxylic acid] it is 307 to 309 °C; for `COc1ccc(/C=N/Nc2cc3c(cc2F)c(=O)c(C(=O)O)cn3-c2ccc(N)cc2F)cc1` [Compound 10, 1-(4-amino-2-fluorophenyl)-6-fluoro-7-[2-(4-methoxybenzylidene)hydrazinyl]-4-oxo-1,4-dihydroquinoline-3-carboxylic acid] it is 321 to 322 °C. Turning to `Nc1ccc(-n2cc(C(=O)O)c(=O)c3cc(F)c(N/N=C/c4ccncc4)cc32)c(F)c1` [Compound 11, 1-(4-amino-2-fluorophenyl)-6-fluoro-4-oxo-7-[2-(pyridin-4-ylmethylene)hydrazinyl]-1,4-dihydroquinoline-3-carboxylic acid], the melting point fell in the range of 176 to 178 °C.
